Data on six compounds can be found in patent US6224857A, “Pharmaceutical preparations comprised of salts of hyaluronic acid with local anaesthetics” (Fidia, S.p.A., priority 1996, dated 2001).

This assay relates to rabbit cornea. Put plainly: Corneal anaesthesia in rabbit (blinking reflex, Camougis and Tankman method). The assay is classed as in vivo. The settings on record: rabbit eye. The protocol:
[…] of solution was instilled in the conjunctival sac. The blinking reflex, tested with a bristle, was measured before instillation and then every 5-10 minutes until one hour after treatment. At each test time the degree of anaesthesia was expressed by means of a score of up to 10 given by the number of stimulations before the eye-blink reflex was obtained. The overall anaesthetic effect for each compound was then quantified by the area under curve (AUC) of the degree of anaesthesia over time.

Where [1] appears, read: Table 1, dose 0.125% (as hydrochloride), reference Bupivacaine HCl = 100.
Where [2] appears, read: Table 5, dose 0.125%, degree of salification, 500-730 kDa, reference Bupivacaine HCl = 100.

Counter-ions that a name gives are not always drawn.

With `CCCCN1CCCCC1C(=O)Nc1c(C)cccc1C` (stereo not drawn) [Bupivacaine HCl, bupivacaine hydrochloride], the “Anaesthesia (AUC)” value under setting [1] came out at 100; the “Anaesthesia (AUC)” value (Table 3, first group (50% Na salts), dose 0.125%, reference Bupivacaine HCl = 100) is 100; the “Anaesthesia (AUC)” value (Table 3, second group (50% Ca salts), dose 0.125%, reference Bupivacaine HCl = 100) is given as 100; the “Anaesthesia (AUC)” value under setting [2] is on record as 100.

As for `CN(C)CCCOc1nn(Cc2ccccc2)c2ccccc12` [Benzydamine HCl, benzydamine hydrochloride], the “Anaesthesia (AUC)” value runs as follows: (Table 1, dose 0.125% (as hydrochloride), reference Benzydamine HCl = 100) 100; (Table 6, dose 0.125%, degree of salification, 50-350 kDa, reference Benzydamine HCl = 100) 100.

Regarding “stoichiometrically neutral salt of hyaluronic acid with bupivacaine [FID 62.2082]”, the “Anaesthesia (AUC)” value (Table 2, dose 0.125%, FID 62.20XX (750-1200 kDa), reference FID 62.2082 = 100) turned out to be 100.

In the case of “stoichiometrically neutral salt of hyaluronic acid with lidocaine [FID 60.2070]”, under “Table 1, dose 1% (as hydrochloride), reference Lidocaine HCl = 100”, the “Anaesthesia (AUC)” value was determined as 167.

In the case of “stoichiometrically neutral salt of hyaluronic acid with bupivacaine [FID 61.2082]”, the “Anaesthesia (AUC)” value came out at 100 (Table 2, dose 0.125%, FID 61.20XX (500-730 kDa), reference FID 61.2082 = 100) and 314 under setting [2].

Take “stoichiometrically neutral salt of hyaluronic acid with bupivacaine [FID 60.2082]”: the “Anaesthesia (AUC)” value is on record as 166 under setting [1] and 100 (Table 2, dose 0.125%, FID 60.20XX (50-350 kDa), reference FID 60.2082 = 100).
